The record followed here is ChEMBL document CHEMBL1126921, “Heterocyclic lactam derivatives as dual angiotensin converting enzyme and neutral endopeptidase 24.11 inhibitors” (J Med Chem, 1993).

The target in assay [1] is T1, Neprilysin (Rattus norvegicus, UniProt P07861).
T1 sequence (P07861 whole entry): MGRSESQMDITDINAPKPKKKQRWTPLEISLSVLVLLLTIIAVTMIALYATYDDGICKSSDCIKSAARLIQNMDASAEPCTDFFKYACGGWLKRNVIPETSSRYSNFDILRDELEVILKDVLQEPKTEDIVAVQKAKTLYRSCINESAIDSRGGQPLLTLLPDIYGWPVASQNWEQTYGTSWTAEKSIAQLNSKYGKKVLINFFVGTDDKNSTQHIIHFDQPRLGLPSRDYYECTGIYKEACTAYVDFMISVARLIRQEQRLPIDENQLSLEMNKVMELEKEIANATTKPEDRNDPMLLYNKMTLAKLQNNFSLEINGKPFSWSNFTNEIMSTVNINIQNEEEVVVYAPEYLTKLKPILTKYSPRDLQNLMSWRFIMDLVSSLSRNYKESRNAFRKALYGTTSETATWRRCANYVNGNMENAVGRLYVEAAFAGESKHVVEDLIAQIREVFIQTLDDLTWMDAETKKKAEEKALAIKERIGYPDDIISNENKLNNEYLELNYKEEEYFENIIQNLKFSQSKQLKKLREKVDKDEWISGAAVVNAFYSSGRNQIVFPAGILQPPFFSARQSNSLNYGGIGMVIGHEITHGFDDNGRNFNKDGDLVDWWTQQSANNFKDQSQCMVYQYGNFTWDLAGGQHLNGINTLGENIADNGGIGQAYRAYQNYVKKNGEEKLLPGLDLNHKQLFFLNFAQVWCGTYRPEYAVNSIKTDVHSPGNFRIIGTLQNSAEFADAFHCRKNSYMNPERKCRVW
Kind of assay: Tested in vitro for the inhibition against neutral endopeptidase (NEP) from rat kidney.

In assay [2] the target is T2, Angiotensin-converting enzyme (Oryctolagus cuniculus, UniProt P12822).
T2 sequence (P12822 whole entry): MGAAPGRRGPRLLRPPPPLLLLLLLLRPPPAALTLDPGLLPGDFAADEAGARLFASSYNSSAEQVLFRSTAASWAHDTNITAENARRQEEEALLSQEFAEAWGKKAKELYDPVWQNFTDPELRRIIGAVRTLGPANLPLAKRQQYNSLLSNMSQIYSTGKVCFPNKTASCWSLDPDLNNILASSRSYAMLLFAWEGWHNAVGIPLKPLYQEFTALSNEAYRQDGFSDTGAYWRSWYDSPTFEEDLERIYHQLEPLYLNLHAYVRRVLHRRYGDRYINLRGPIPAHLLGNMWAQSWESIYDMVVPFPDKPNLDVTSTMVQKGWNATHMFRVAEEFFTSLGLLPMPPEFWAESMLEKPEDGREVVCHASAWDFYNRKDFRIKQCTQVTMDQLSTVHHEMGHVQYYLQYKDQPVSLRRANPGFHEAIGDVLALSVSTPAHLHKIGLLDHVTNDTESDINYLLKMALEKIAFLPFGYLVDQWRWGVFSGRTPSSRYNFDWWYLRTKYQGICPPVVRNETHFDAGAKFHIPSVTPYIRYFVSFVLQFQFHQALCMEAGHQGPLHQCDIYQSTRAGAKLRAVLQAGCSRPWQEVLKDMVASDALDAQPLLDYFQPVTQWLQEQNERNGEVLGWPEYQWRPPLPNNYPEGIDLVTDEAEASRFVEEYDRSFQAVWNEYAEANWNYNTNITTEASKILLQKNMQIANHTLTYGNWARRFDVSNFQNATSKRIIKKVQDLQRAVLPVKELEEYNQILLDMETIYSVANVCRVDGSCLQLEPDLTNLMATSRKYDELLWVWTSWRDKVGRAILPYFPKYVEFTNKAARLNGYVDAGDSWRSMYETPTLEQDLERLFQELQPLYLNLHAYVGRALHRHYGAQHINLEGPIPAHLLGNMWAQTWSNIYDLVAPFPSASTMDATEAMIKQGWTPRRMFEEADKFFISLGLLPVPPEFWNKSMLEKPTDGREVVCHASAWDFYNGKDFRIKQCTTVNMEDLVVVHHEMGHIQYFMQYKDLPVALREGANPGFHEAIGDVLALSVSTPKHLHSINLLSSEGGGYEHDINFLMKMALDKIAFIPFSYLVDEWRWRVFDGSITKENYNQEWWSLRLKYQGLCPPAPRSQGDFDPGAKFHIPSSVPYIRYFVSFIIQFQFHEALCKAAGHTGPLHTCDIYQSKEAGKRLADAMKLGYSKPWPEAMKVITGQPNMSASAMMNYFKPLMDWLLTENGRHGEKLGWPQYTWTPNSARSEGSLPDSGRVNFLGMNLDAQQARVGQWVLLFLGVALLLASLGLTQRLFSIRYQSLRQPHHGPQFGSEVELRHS
Kind of assay: Tested in vitro for the inhibition of angiotensin converting enzyme from rabbit lung.

Assay [3] has as its system Rattus norvegicus. Nature of the assay: Tested for the inhibition of angiotensin I (AI) pressor response after 2 hours following an oral dose of 10 mg/kg. It is filed as functional.
The test system of assay [4] is Rattus norvegicus. Kind of assay: Tested for the inhibition of angiotensin I (AI) pressor response after 1 hour following an oral dose of 10 mg/kg. It is filed as functional.
In assay [5] the test system is Rattus norvegicus. Kind of assay: Tested for the inhibition of angiotensin I (AI) pressor response after 0.5 hour following an oral dose of 10 mg/kg. It is filed as functional.
Assay [6] relates to Rattus norvegicus. Kind of assay: Tested for the plasma concentration based on ex vivo NEP inhibition after 0.5 hour following an oral dose of 10 mg/kg. It is filed as functional, organism-based. On the set-up: dose 10 mg/kg.
The subject of assay [7] is Rattus norvegicus. Kind of assay: Tested for the plasma concentration based on ex vivo NEP inhibition after 1 hour following an oral dose of 10 mg/kg. On the set-up: dose 10 mg/kg. It is filed as functional, organism-based.
Assay [8] deals with Rattus norvegicus. Kind of assay: Tested for the plasma concentration based on ex vivo NEP inhibition after 2 hours following an oral dose of 10 mg/kg. Type of assay: functional, organism-based. On the set-up: dose 10 mg/kg.
Assay [9] relates to Rattus norvegicus. Kind of assay: Tested for the plasma concentration based on ex vivo NEP inhibition after 3 hours following an oral dose of 10 mg/kg. Type of assay: functional, organism-based. On the set-up: dose 10 mg/kg.

In the case of `O=C1N[C@H](C(=O)O)CSCCCCCCCC1CS` (single isomer, unassigned; isomer A), the 50% inhibitory concentration (IC50) in assay [1] came to 190 nM; in [2], 72 nM.

On to `O=C1N[C@H](C(=O)O)CSCCCCCCCC1CS` (single isomer, unassigned; isomer B) [listing 1 of 2 here], for which the inhibition in vivo at 10 mg/kg in assay [3] is 0%; in assay [4] it was 17%; in assay [5], 71%. Moreover, the figures for the IC50 in [1] and in assay [2] were 18 nM and 12 nM, respectively.

`O=C1N[C@H](C(=O)O)CSCCCCCCCC1CS` (single isomer, unassigned; isomer B) [listing 2 of 2 here]: the Plasma concentration in assay [6] turned out to be 1.81 µM; in assay [7], 0.32 µM; in [8], 0.17 µM; in assay [9], 0.06 µM.

For `O=C1N[C@H](C(=O)O)CSCCCCCCCCC1CS` (stereo in doubt; 12a), the IC50 in assay [1] was determined as 1300 nM; in assay [2] it was 4600 nM.

On to `O=C1N[C@H](C(=O)O)CSCCCCCCCCC1CS` (stereo in doubt; 12b), for which the IC50 in [1] stood at 167 nM; in assay [2], 17 nM.

On to `O=C(O)CN1C(=O)[C@@H](N[C@@H](CCc2ccccc2)C(=O)O)CCc2ccccc21` [BENAZEPRILAT], for which the inhibition in vivo at 10 mg/kg in assay [3] came to 77%; in assay [4], 86%; in [5], 100%.
